Reference: patent US7982017B2, “Antibodies recognizing a carbohydrate containing epitope on CD-43 and CEA expressed on cancer cells and methods using same” (BioAlliance C.V., priority 2007, dated 2011)

Legend:
[1] = test system: Colo205 cells; test: Apoptosis of Colo205 cells by 5F1 antibodies in combination with Oxaliplatin (24 h, Annexin V / PI); format: cell-based; conditions: background subtracted
Method: 1.4×10^5 of Colo205 cells were seeded into the wells of 96-well plates. Aliquots of Oxaliplatin reconstituted in 5% glucose solution were prepared freshly and added to each well at the final concentration of 1 and 10 ug/ml, along or in combination with aliquots of purified c5F1-v17, c5F1-v24, c5F1-v25 and control antibodies at the final concentrations of 10 and 30 ug/ml. The treated cells were kept at 37° incubator for 24 h before FACS analysis for apoptosis. For cellular apoptosis assay, Annexin V staining was measured using Annexin-V-FITC Apoptosis Detection Kit (Strong Biotech, Cat. No. AV 250) following the manufacturer's instruction. In brief, the treated cells were harvested and resuspended in Annexin V binding buffer containing Annexin V-FITC at room temperature. After 15 min incubation in the dark, the cells were washed twice with 200 ul of Annexin V binding buffer. Before FACS analysis, 0.5 ul of propidium iodide (PI) was added. All flow cytometric analyses were performed on a BD-LSR flow cytometer (Becton Dickinson) using the Cell Quest software. The Annexin V positive and/or PI positive cells are considered apoptotic cells.

[2] = test system: COLO 205 cells; test: Six-hour apoptosis assay (Annexin V / PI, FACS) in COLO 205; format: cell-based; conditions: 6 h
Method: 1.5×10^5 of COLO 205 cells were seeded into the wells of 96-well plates. Aliquots of purified m5F1, c5F1-v0, c5F1-v15, c5F1-v16 and control antibodies at the concentration ranging from 2 to 32 ug/ml were prepared freshly in culture medium and added to each well. The sample treated with m9E10 and h16C11A were used as isotype control. The treated cells were kept at 37° incubator for 6 h before FACS analysis for apoptosis. For cellular apoptosis assay, Annexin V staining was measured using Annexin-V-FITC Apoptosis Detection Kit (Strong Biotech, Cat. No. AVK250) following the manufacturer's instruction. In brief, the treated cells were harvested and resuspended in Annexin V binding buffer containing Annexin V-FITC at room temperature. After 15 min incubation in the dark, the cells were washed twice with 200 μl of Annexin V binding buffer. Before FACS analysis, 0.25 μg/ml of propidium iodide (PI) was added. All flow cytometric analyses were performed on a BD-LSR flow cytometer (Becton Dickinson) using the Cell Quest software. The Annexin VI positive and/or PI positive cells are considered apoptotic cells.
1.5×10^5 of Colo205 cells were seeded into the wells of 96-well plates. Aliquots of purified m5F1, c5F1, c5F1-v17, c5F1-v24, c5F1-v25 and control antibodies at the concentration ranging from 8 to 32 ug/ml were prepared freshly in culture medium and added to each well. The treated cells were kept at 37° incubator for 6 h before FACS analysis for apoptosis. For cellular apoptosis assay, Annexin V staining was measured using Annexin-V-FITC Apoptosis Detection Kit (Strong Biotech, Cat. No. AV 250) following the manufacturer's instruction. In brief, the treated cells were harvested and resuspended in Annexin V binding buffer containing Annexin V-FITC at room temperature. After 15 min incubation in the dark, the cells were washed twice with 200 ul of Annexin V binding buffer. Before FACS analysis, 0.25 ug/ml of propidium iodide (PI) was added. All flow cytometric analyses were performed on a BD-LSR flow cytometer (Becton Dickinson) using the Cell Quest software. The Annexin VI positive and/or PI positive cells are considered apoptotic cells.

[3] = test system: COLO 205 cells; test: Binding assay: flow cytometric binding of 5F1 antibodies to COLO 205 cells; conditions: for binding to Colo 205 (words): FIG. 3, 0.125 to 4 ug/ml
Method: Purified m5F1, c5F1-v0, c5F1-v15 and c5F1-v16 antibodies at the concentration ranging from 0.125 to 4 ug/ml were added to 1.5×10^5 COLO 205 cells and incubated for 30 min at 4° C., washed for twice with PBS containing 2% FBS and 0.05% NaN3, followed by incubation with 1 μg/ml of corresponding secondary antibodies (R-PE-conjugated goat F(ab′)2 anti-mouse IgG(H+L), Southern Biotech, Cat. No. 1032-09; or R-PE-conjugated goat anti-human IgG, Southern Biotech, Cat. No. 2040-09) at 4° C. for 30 min. At the end of staining, samples were washed twice with PBS containing 2% FBS and 0.05% NaN3 and analyzed by flow cytometer. All flow cytometric analyses were performed on a BD-LSR flow cytometer (Becton Dickinson) using the Cell Quest software.
Purified m5F1, c5F1-v0, c5F1-yl7, c5F1-v24 and c5F1-v25 antibodies at 1 ug/ml were added to 2×10^5 Colo 205 cells and incubated for 30 min at 4° C., washed for twice with PBS containing 1% FBS, followed by incubation with 1 ug/ml of corresponding secondary antibodies (R-PE-conjugated goat F(ab′)2 anti-mouse IgG(H+L), Southern Biotech, Cat. No. 1032-09; or R-PE-conjugated goat anti-human IgG, Southern Biotech, Cat. No. 2040-09) at 4° C. for 30 min. At the end of staining, samples were washed twice with PBS containing 1% FBS and 0.05% NaN3 and analyzed by flow cytometer. All flow cytometric analyses were performed on a BD-LSR flow cytometer (Becton Dickinson) using the Cell Quest software.

Molecule | % apoptosis ([1]; Oxaliplatin 1 ug/ml alone (Antibody 0)) [%] | % apoptosis ([1]; Oxaliplatin 10 ug/ml alone (Antibody 0)) [%] | apoptosis-inducing activity in COLO 205 ([2]; 2 to 32 ug/ml, compared with m5F1) | % of Annexin V and/or PI positive cells ([2]; Table 7, 4 ug/ml) [%] | % of Annexin V and/or PI positive cells ([2]; Table 7, 8 ug/ml) [%] | % of Annexin V and/or PI positive cells ([2]; Table 7, 16 ug/ml) [%] | % of Annexin V and/or PI positive cells ([2]; Table 7, 32 ug/ml) [%] | % of Annexin V and/or PI positive cells ([2]; Table 11 Exp. 1, 8 ug/ml) [%] | % of Annexin V and/or PI positive cells ([2]; Table 11 Exp. 1, 16 ug/ml) [%] | % of Annexin V and/or PI positive cells ([2]; Table 11 Exp. 1, 32 ug/ml) [%] | % of Annexin V and/or PI positive cells ([2]; Table 11 Exp. 2, 8 ug/ml) [%] | % of Annexin V and/or PI positive cells ([2]; Table 11 Exp. 2, 16 ug/ml) [%] | % of Annexin V and/or PI positive cells ([2]; Table 11 Exp. 2, 32 ug/ml) [%] | binding to Colo 205 (words) [3] | binding to Colo 205 (words) ([3]; listed as c5F1v0) | Median Fluorescence Intensity (MFI) ([3]; Table 10, antibodies at 1 ug/ml)
O=C1[O][Pt]2([NH][C@@H]3CCCC[C@H]3[NH]2)[O]C1=O [Oxaliplatin] | 2 | 6 | – | – | – | – | – | – | – | – | – | – | – | – | – | –
c5F1-v0: chimeric 5F1: variable region of murine 5F1 with constant region of human IgG1; heavy chain v0[H], light chain v0[L] | – | – | not as efficient as m5F1 | 33 | 46 | 68 | 78 | 34 | 60 | 70 | 54 | 63 | 69 | bind COLO 205 cells | significant binding | 2760
